According to ChEMBL document CHEMBL4507300 (2021):

Assays:
[1] = target: 5-hydroxytryptamine receptor 2A (Homo sapiens) (UniProt P28223); conditions: Compound concentration 10.0 uM
[2] = target: D(1B) dopamine receptor (Homo sapiens) (UniProt P21918); conditions: Compound concentration 10.0 uM
[3] = target: Histamine H3 receptor (Homo sapiens) (UniProt Q9Y5N1); conditions: Compound concentration 10.0 uM
[4] = target: Sodium-dependent noradrenaline transporter (Homo sapiens) (UniProt P23975); conditions: Compound concentration 10.0 uM
Chain of Sodium-dependent noradrenaline transporter (Homo sapiens) (P23975 whole entry): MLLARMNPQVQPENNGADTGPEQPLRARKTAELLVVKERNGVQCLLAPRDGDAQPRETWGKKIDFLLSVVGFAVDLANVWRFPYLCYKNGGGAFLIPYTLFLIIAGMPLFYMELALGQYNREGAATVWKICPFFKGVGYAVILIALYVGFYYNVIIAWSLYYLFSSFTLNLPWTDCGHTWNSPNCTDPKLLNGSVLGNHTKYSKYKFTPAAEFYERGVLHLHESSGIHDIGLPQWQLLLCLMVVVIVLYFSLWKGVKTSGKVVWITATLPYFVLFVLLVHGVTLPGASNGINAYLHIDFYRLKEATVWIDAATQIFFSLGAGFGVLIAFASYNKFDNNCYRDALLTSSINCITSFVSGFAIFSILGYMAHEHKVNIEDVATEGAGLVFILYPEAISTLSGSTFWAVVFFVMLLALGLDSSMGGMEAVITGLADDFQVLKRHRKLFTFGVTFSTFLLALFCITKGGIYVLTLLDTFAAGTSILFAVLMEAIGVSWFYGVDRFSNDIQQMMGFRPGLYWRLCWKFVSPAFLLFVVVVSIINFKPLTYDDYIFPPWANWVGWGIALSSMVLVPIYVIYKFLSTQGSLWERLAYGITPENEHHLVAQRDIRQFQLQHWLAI

[5] = target: Alpha-1A adrenergic receptor (Homo sapiens) (UniProt P35348); conditions: Compound concentration 10.0 uM
[6] = target: T1, 5-hydroxytryptamine receptor 2B (Homo sapiens, UniProt P41595); conditions: Compound concentration 10.0 uM
T1 sequence (P41595 whole entry): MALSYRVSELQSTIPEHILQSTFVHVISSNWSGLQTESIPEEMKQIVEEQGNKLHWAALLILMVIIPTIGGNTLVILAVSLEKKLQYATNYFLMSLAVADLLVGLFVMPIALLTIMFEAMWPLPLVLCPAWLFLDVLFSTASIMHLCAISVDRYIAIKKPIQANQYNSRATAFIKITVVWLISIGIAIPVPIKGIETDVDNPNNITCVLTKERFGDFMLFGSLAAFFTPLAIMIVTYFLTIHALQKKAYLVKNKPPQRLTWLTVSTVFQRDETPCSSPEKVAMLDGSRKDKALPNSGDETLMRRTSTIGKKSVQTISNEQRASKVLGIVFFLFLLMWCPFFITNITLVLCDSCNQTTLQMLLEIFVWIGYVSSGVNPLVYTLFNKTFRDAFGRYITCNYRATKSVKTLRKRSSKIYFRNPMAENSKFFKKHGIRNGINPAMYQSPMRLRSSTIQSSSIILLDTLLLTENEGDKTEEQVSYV

[7] = target: D(2) dopamine receptor (Homo sapiens) (UniProt P14416); conditions: Compound concentration 10.0 uM
[8] = target: Kappa-type opioid receptor (Homo sapiens) (UniProt P41145); conditions: Compound concentration 10.0 uM
[9] = target: T2, Sigma non-opioid intracellular receptor 1 (Homo sapiens, UniProt Q99720); assay: GPCRScan assay: inhibition of Sigma 1; set-up: radioligand conc. used [nm] 4.0 – 5.0, parental cells HEKT
T2 sequence (Q99720 whole entry): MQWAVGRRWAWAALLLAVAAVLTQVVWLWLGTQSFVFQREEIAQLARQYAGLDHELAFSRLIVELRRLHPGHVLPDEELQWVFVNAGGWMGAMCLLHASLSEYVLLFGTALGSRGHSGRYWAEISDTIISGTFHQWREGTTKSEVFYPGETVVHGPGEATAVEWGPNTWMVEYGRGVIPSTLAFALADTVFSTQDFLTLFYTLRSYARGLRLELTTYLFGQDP

[10] = target: Mu-type opioid receptor (Homo sapiens) (UniProt P35372); conditions: Compound concentration 10.0 uM
[11] = target: 5-hydroxytryptamine receptor 1A (Homo sapiens) (UniProt P08908); conditions: Compound concentration 10.0 uM
Chain of 5-hydroxytryptamine receptor 1A (Homo sapiens) (P08908 whole entry): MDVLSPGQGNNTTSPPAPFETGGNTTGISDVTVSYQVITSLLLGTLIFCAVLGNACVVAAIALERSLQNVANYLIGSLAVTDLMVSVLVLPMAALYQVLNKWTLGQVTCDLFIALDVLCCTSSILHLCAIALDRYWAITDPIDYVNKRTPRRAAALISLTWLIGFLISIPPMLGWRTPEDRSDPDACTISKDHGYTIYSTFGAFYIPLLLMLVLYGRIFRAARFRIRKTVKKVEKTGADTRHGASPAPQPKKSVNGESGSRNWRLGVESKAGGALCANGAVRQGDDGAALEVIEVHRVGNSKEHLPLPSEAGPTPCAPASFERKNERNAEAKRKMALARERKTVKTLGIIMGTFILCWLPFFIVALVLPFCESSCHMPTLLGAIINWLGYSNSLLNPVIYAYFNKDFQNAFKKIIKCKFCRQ

[12] = target: 5-hydroxytryptamine receptor 6 (Homo sapiens) (UniProt P50406); conditions: Compound concentration 10.0 uM
[13] = target: Muscarinic acetylcholine receptor M1 (Homo sapiens) (UniProt P11229); conditions: Compound concentration 10.0 uM
[14] = target: Alpha-1B adrenergic receptor (Homo sapiens) (UniProt P35368); conditions: Compound concentration 10.0 uM
Chain of Alpha-1B adrenergic receptor (Homo sapiens) (P35368 whole entry): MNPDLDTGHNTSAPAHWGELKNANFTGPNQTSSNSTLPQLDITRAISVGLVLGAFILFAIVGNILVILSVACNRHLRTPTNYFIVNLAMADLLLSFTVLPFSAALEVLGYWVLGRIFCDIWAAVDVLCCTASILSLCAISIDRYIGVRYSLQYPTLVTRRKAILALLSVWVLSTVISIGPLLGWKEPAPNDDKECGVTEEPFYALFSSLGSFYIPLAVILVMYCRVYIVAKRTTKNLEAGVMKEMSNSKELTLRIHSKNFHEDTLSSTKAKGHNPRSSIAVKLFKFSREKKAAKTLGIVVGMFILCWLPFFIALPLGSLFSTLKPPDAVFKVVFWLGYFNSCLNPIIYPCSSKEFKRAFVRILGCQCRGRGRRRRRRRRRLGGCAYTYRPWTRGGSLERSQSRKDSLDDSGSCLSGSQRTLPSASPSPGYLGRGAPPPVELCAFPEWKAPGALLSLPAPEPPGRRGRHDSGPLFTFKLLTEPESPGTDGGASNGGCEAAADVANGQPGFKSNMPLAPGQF

[15] = target: 5-hydroxytryptamine receptor 2C (Homo sapiens) (UniProt P28335); conditions: Compound concentration 10.0 uM
[16] = target: Muscarinic acetylcholine receptor M2 (Homo sapiens) (UniProt P08172); conditions: Compound concentration 10.0 uM
[17] = target: 5-hydroxytryptamine receptor 3A (Homo sapiens) (UniProt P46098); conditions: Compound concentration 10.0 uM
[18] = target: 5-hydroxytryptamine receptor 1B (Homo sapiens) (UniProt P28222); conditions: Compound concentration 10.0 uM
[19] = target: T3, Sodium-dependent serotonin transporter (Homo sapiens, UniProt P31645); conditions: Compound concentration 10.0 uM
[20] = target: Histamine H2 receptor (Homo sapiens) (UniProt P25021); conditions: Compound concentration 10.0 uM
[21] = target: Histamine H4 receptor (Homo sapiens) (UniProt Q9H3N8); conditions: Compound concentration 10.0 uM
[22] = target: T1, 5-hydroxytryptamine receptor 2B; assay: GPCRScan assay: inhibition of 5-HT2B; set-up: radioligand conc. used [nm] 1.0 – 2.0, parental cells stable HEK
[23] = target: T3, Sodium-dependent serotonin transporter; assay: GPCRScan assay: inhibition of SERT; set-up: radioligand conc. used [nm] 1.5 – 2.0, parental cells stable HEK
Histamine H1 receptor [24] = target: T4, Histamine H1 receptor (Homo sapiens, UniProt P35367); assay: GPCRScan assay: inhibition of H1; set-up: radioligand conc. used [nm] 0.6 – 2.0, parental cells stable HEK
T4 sequence (P35367 whole entry): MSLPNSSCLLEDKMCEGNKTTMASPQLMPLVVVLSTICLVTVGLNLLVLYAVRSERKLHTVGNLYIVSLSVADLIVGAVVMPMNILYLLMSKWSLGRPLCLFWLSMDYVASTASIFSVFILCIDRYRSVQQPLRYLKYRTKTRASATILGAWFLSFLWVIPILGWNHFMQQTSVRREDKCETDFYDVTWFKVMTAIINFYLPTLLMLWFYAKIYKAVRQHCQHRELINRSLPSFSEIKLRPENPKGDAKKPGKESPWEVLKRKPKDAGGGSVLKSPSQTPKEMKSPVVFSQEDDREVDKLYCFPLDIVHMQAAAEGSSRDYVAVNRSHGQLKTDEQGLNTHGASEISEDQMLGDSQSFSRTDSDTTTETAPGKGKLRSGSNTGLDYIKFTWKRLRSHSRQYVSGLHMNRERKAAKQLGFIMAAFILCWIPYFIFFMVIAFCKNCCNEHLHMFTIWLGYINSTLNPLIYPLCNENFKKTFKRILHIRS

[25] = target: T5, GABA-A receptor; anion channel (Rattus norvegicus) (UniProt O09028+P15431+P18506+P18508+P19969+P20236+P23574+P23576+P28471+P28473+P30191+P62813+P63079+P63138+Q91ZM7+Q9ES14); conditions: Compound concentration 10.0 uM
[26] = target: Muscarinic acetylcholine receptor M5 (Homo sapiens) (UniProt P08912); conditions: Compound concentration 10.0 uM
[27] = target: Alpha-2A adrenergic receptor (Homo sapiens) (UniProt P08913); conditions: Compound concentration 10.0 uM
Chain of Alpha-2A adrenergic receptor (Homo sapiens) (P08913 whole entry): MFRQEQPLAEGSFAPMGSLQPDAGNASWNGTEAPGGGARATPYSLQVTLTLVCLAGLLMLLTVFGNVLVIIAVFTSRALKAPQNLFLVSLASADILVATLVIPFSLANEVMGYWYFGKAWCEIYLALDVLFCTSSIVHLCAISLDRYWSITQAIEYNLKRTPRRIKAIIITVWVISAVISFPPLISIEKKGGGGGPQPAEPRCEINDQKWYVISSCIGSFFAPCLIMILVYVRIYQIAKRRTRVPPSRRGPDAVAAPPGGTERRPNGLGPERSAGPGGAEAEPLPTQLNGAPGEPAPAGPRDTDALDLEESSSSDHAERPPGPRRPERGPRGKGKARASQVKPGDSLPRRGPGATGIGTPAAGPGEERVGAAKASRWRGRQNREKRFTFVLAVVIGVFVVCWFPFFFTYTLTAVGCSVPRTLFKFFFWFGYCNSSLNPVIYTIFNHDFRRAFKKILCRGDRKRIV

[28] = target: Beta-2 adrenergic receptor (Homo sapiens) (UniProt P07550); conditions: Compound concentration 10.0 uM
[29] = target: 5-hydroxytryptamine receptor 1E (Homo sapiens) (UniProt P28566); conditions: Compound concentration 10.0 uM
[30] = target: Beta-3 adrenergic receptor (Homo sapiens) (UniProt P13945); conditions: Compound concentration 10.0 uM
[31] = target: Sodium-dependent dopamine transporter (Homo sapiens) (UniProt Q01959); conditions: Compound concentration 10.0 uM
[32] = target: Alpha-2C adrenergic receptor (Homo sapiens) (UniProt P18825); conditions: Compound concentration 10.0 uM
Rattus norvegicus = species: Rattus norvegicus; conditions: Compound concentration 10.0 uM
[33] = target: Delta-type opioid receptor (Homo sapiens) (UniProt P41143); conditions: Compound concentration 10.0 uM
Chain of Delta-type opioid receptor (Homo sapiens) (P41143 whole entry): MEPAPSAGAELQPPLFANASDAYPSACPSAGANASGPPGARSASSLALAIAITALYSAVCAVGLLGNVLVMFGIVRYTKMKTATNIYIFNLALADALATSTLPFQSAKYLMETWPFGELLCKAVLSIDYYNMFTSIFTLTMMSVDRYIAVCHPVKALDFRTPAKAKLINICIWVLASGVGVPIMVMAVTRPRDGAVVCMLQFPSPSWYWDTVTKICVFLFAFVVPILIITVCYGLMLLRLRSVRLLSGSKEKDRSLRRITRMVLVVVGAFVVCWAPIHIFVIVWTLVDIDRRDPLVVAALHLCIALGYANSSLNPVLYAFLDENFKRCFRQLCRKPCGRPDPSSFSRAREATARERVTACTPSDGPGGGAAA

[34] = target: 5-hydroxytryptamine receptor 1D (Homo sapiens) (UniProt P28221); conditions: Compound concentration 10.0 uM
Histamine H1 receptor [35] = target: T4, Histamine H1 receptor; conditions: Compound concentration 10.0 uM
[36] = target: T5, GABA-A receptor; anion channel (Rattus norvegicus); conditions: Compound concentration 10.0 uM; remark: listed apart in the source
[37] = target: D(4) dopamine receptor (Homo sapiens) (UniProt P21917); conditions: Compound concentration 10.0 uM
[38] = target: Alpha-1D adrenergic receptor (Homo sapiens) (UniProt P25100); conditions: Compound concentration 10.0 uM
[39] = target: Alpha-2B adrenergic receptor (Homo sapiens) (UniProt P18089); conditions: Compound concentration 10.0 uM
Chain of Alpha-2B adrenergic receptor (Homo sapiens) (P18089 whole entry): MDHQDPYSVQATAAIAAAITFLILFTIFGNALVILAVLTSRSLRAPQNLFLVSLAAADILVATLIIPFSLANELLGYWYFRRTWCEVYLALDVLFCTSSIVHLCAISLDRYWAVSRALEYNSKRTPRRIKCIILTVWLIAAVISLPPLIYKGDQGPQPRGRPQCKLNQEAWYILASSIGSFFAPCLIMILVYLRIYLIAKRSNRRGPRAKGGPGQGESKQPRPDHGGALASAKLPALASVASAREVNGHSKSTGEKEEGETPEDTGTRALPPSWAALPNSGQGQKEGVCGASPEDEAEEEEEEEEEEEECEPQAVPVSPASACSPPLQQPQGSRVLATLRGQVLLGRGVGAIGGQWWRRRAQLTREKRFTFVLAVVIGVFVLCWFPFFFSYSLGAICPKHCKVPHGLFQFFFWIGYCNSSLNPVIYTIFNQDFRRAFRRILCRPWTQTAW

[40] = target: T2, Sigma non-opioid intracellular receptor 1; conditions: Compound concentration 10.0 uM
[41] = target: 5-hydroxytryptamine receptor 5A (Homo sapiens) (UniProt P47898); conditions: Compound concentration 10.0 uM
[42] = target: D(3) dopamine receptor (Homo sapiens) (UniProt P35462); conditions: Compound concentration 10.0 uM
Chain of D(3) dopamine receptor (Homo sapiens) (P35462 whole entry): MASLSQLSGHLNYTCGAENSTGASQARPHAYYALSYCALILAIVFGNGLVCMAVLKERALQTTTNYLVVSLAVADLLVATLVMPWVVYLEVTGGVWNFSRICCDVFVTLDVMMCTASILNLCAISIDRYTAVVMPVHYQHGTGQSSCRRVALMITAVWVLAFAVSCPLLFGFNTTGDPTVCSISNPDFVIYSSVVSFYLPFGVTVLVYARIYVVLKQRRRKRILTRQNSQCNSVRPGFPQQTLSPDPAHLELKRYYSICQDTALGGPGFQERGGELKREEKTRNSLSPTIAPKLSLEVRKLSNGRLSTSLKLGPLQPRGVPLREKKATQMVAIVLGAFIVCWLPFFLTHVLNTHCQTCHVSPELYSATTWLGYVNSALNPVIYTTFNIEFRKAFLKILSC

[43] = target: Beta-1 adrenergic receptor (Homo sapiens) (UniProt P08588); conditions: Compound concentration 10.0 uM
[44] = target: 5-hydroxytryptamine receptor 7 (Homo sapiens) (UniProt P34969); conditions: Compound concentration 10.0 uM

Chain of 5-hydroxytryptamine receptor 2A (Homo sapiens) (P28223 whole entry): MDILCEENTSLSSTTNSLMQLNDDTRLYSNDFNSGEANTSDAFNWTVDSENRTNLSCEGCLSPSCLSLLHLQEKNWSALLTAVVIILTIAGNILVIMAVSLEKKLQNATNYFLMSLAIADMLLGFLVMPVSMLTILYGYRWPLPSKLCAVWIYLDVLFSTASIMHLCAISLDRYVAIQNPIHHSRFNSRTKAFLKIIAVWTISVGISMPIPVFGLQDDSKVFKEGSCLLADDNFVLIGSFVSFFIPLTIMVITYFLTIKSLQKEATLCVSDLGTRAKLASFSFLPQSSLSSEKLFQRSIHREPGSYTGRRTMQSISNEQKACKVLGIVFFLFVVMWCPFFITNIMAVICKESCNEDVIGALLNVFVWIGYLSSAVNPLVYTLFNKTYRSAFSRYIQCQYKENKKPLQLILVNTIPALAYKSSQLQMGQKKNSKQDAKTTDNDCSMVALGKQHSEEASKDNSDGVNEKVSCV

inhibition [1]: 14.9%
inhibition [2]: 2.81%
inhibition [3]: 6.01%
inhibition [4]: 19.6%
inhibition [5]: 12.5%
inhibition [6]: 51%
inhibition [7]: 12.5%
inhibition [8]: 14.2%
Ki [9]: 263 nM
inhibition [10]: 2.84%
inhibition [11]: 15.8%
inhibition [12]: 3.76%
inhibition [13]: -8.97%
inhibition [14]: 12.9%
inhibition [15]: 13.5%
inhibition [16]: 26.6%
inhibition [17]: 20.4%
inhibition [18]: -2.26%
inhibition [19]: 84%
inhibition [20]: 30.7%
inhibition [21]: 21%
Ki [22]: 1600 nM
Ki [23]: 831 nM
Ki (Histamine H1 receptor [24]): 19 nM
inhibition [25]: 32.4%
inhibition [26]: 2.67%
inhibition [27]: 27.3%
inhibition [28]: -6.8%
inhibition [29]: -0.688%
inhibition [30]: -4.01%
inhibition [31]: -7.85%
inhibition [32]: 16.3%
inhibition (Rattus norvegicus): 18.5%
inhibition [33]: -5.54%
inhibition [34]: -0.959%
inhibition (Histamine H1 receptor [35]): 73.4%
inhibition [36]: 30.5%
inhibition [37]: 14.4%
inhibition [38]: 12.7%
inhibition [39]: 17.4%
inhibition [40]: 80.7%
inhibition [41]: 2.98%
inhibition [42]: 20.1%
inhibition [43]: 30.9%
inhibition [44]: -5.94%
SMILES: COc1cccc(CNC(=O)c2nc3scc(CN(C)Cc4ccccc4)c3c(=O)[nH]2)c1 [T-26f]
